Where only a bound is given, the exact number is not on record here.

The assay relates to BE(2)-C cell. As to the kind of experiment: Cell proliferation assay (MTS) in BE(2)-C cells. It counts as cell-based. As to conditions: Homo sapiens, inhibition of BE(2)-C cell proliferation, 48 h. An outline of the steps:
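BE(2)-C cells (3000/well, DMEM + 10% FBS) were treated for 48 h at 37 °C with compound at 1.5–10000 nM in nine concentrations. Viability was measured by MTS (2 h, stopped with SDS) at 490/650 nm, and IC50 was calculated from the dose-response.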
Broadly, the IC50 is the point on the concentration scale where inhibition reaches its midpoint. In turn, `C[C@@H]1CCc2nc3c(F)cc(-c4nc(Nc5ccc(CN6CCC7(CC6)CN(C)C7)cn5)ncc4F)cc3n21` [Example 87, (R)-5-fluoro-4-(5-fluoro-1-methyl-2,3-dihydro-1H-benzo[d]pyrrolo[1,2-a]imidazol-7-yl)-N-(5-((2-methyl-2,7-diazaspiro[3.5]nonan-7-yl)methyl)pyridin-2-yl)pyrimidin-2-amine] yielded an IC50 of 10 to 100 nM.
The result for `CCN1CC2(CCN(Cc3ccc(Nc4ncc(F)c(-c5cc(F)c6nc7n(c6c5)[C@H](C)CC7)n4)nc3)CC2)C1` [Example 88, (R)-N-(5-((2-ethyl-2,7-diazaspiro[3.5]nonan-7-yl)methyl)pyridin-2-yl)-5-fluoro-4-(5-fluoro-1-methyl-2,3-dihydro-1H-benzo[d]pyrrolo[1,2-a]imidazol-7-yl)pyrimidin-2-amine] reads 10 to 100 nM; that for `C[C@@H]1CCc2nc3c(F)cc(-c4nc(Nc5ccc(CN6CC7(CCNCC7)C6)cn5)ncc4F)cc3n21` [Example 89, (R)-N-(5-((2,7-diazaspiro[3.5]nonan-2-yl)methyl)pyridin-2-yl)-5-fluoro-4-(5-fluoro-1-methyl-2,3-dihydro-1H-benzo[d]pyrrolo[1,2-a]imidazol-7-yl)pyrimidin-2-amine], greater than 100 nM; that for `C[C@@H]1CCc2nc3c(F)cc(-c4nc(Nc5ccc(CN6CC7(CCN(C)CC7)C6)cn5)ncc4F)cc3n21` [Example 90, (R)-5-fluoro-4-(5-fluoro-1-methyl-2,3-dihydro-1H-benzo[d]pyrrolo[1,2-a]imidazol-7-yl)-N-(5-((7-methyl-2,7-diazaspiro[3.5]nonan-2-yl)methyl)pyridin-2-yl)pyrimidin-2-amine], 10 to 100 nM.
Regarding `CCN1CCC2(CC1)CN(Cc1ccc(Nc3ncc(F)c(-c4cc(F)c5nc6n(c5c4)[C@H](C)CC6)n3)nc1)C2` [Example 91, (R)-N-(5-((7-ethyl-2,7-diazaspiro[3.5]nonan-2-yl)methyl)pyridin-2-yl)-5-fluoro-4-(5-fluoro-1-methyl-2,3-dihydro-1H-benzo[d]pyrrolo[1,2-a]imidazol-7-yl)pyrimidin-2-amine], the IC50 lay in the range of 10 to 100 nM.
For the molecule `C[C@@H]1CCc2nc3c(F)cc(-c4nc(Nc5ccc(CN6CCC7(CCNCC7)CC6)cn5)ncc4F)cc3n21` [Example 92, (R)-N-(5-((3,9-diazaspiro[5.5]undecan-3-yl)methyl)pyridin-2-yl)-5-fluoro-4-(5-fluoro-1-methyl-2,3-dihydro-1H-benzo[d]pyrrolo[1,2-a]imidazol-7-yl)pyrimidin-2-amine], the IC50 is greater than 100 nM.
`C[C@@H]1CCc2nc3c(F)cc(-c4nc(Nc5ccc(CN6CCC7(CCN(C)CC7)CC6)cn5)ncc4F)cc3n21` [Example 93, (R)-5-fluoro-4-(5-fluoro-1-methyl-2,3-dihydro-1H-benzo[d]pyrrolo[1,2-a]imidazol-7-yl)-N-(5-((9-methyl-3,9-diazaspiro[5.5]undecan-3-yl)methyl)pyridin-2-yl)pyrimidin-2-amine]: the 50% inhibitory concentration (IC50) was greater than 100 nM.
The figure for `CCN1CCC2(CC1)CCN(Cc1ccc(Nc3ncc(F)c(-c4cc(F)c5nc6n(c5c4)[C@H](C)CC6)n3)nc1)CC2` [Example 94, (R)-N-(5-((9-ethyl-3,9-diazaspiro[5.5]undecan-3-yl)methyl)pyridin-2-yl)-5-fluoro-4-(5-fluoro-1-methyl-2,3-dihydro-1H-benzo[d]pyrrolo[1,2-a]imidazol-7-yl)pyrimidin-2-amine] is greater than 100 nM; for `C[C@@H]1CCc2nc3c(F)cc(-c4nc(Nc5ccc(CN6CC7(CNC7)C6)cn5)ncc4F)cc3n21` [Example 95, (R)-N-(5-((2,6-diazaspiro[3.3]heptan-2-yl)methyl)pyridin-2-yl)-5-fluoro-4-(5-fluoro-1-methyl-2,3-dihydro-1H-benzo[d]pyrrolo[1,2-a]imidazol-7-yl)pyrimidin-2-amine] it is greater than 1000 nM.
The result for `C[C@@H]1CCc2nc3c(F)cc(-c4nc(Nc5ccc(CN6CC7(CN(C)C7)C6)cn5)ncc4F)cc3n21` [Example 96, (R)-5-fluoro-4-(5-fluoro-1-methyl-2,3-dihydro-1H-benzo[d]pyrrolo[1,2-a]imidazol-7-yl)-N-(5-((6-methyl-2,6-diazaspiro[3.3]heptan-2-yl)methyl)pyridin-2-yl)pyrimidin-2-amine] reads greater than 100 nM.
The result for `CCN1CC2(C1)CN(Cc1ccc(Nc3ncc(F)c(-c4cc(F)c5nc6n(c5c4)[C@H](C)CC6)n3)nc1)C2` [Example 97, (R)-N-(5-((6-ethyl-2,6-diazaspiro[3.3]heptan-2-yl)methyl)pyridin-2-yl)-5-fluoro-4-(5-fluoro-1-methyl-2,3-dihydro-1H-benzo[d]pyrrolo[1,2-a]imidazol-7-yl)pyrimidin-2-amine] reads 10 to 100 nM; that for `C[C@@H]1CCc2nc3c(F)cc(-c4nc(Nc5ccc(CN6CC7CNCC7C6)cn5)ncc4F)cc3n21` (stereo partly drawn) [Example 98, 5-fluoro-4-((R)-5-fluoro-1-methyl-2,3-dihydro-1H-benzo[d]pyrrolo[1,2-a]imidazol-7-yl)-N-(5-((hexahydropyrrolo[3,4-c]pyrrol-2(1H)-yl)methyl)pyridin-2-yl)pyrimidin-2-amine], greater than 100 nM; that for `C[C@@H]1CCc2nc3c(F)cc(-c4nc(Nc5ccc(CN6CC7CN(C)CC7C6)cn5)ncc4F)cc3n21` (stereo partly drawn) [Example 99, 5-fluoro-4-((R)-5-fluoro-1-methyl-2,3-dihydro-1H-benzo[d]pyrrolo[1,2-a]imidazol-7-yl)-N-(5-((5-methylhexahydropyrrolo[3,4-c]pyrrol-2(1H)-yl)methyl)pyridin-2-yl)pyrimidin-2-amine], 10 to 100 nM.
`CCN1CC2CN(Cc3ccc(Nc4ncc(F)c(-c5cc(F)c6nc7n(c6c5)[C@H](C)CC7)n4)nc3)CC2C1` (stereo partly drawn) [Example 100, N-(5-((5-ethylhexahydropyrrolo[3,4-c]pyrrol-2(1H)-yl)methyl)pyridin-2-yl)-5-fluoro-4-((R)-5-fluoro-1-methyl-2,3-dihydro-1H-benzo[d]pyrrolo[1,2-a]imidazol-7-yl)pyrimidin-2-amine]: the half-maximal inhibitory concentration (IC50) is 10 to 100 nM.
With `C[C@@H]1CCc2nc3c(F)cc(-c4nc(Nc5ccc(CN6C7CCC6CNC7)cn5)ncc4F)cc3n21` [Example 101, N-(5-((3,8-diazabicyclo[3.2.1]octan-8-yl)methyl)pyridin-2-yl)-5-fluoro-4-((R)-5-fluoro-1-methyl-2,3-dihydro-1H-benzo[d]pyrrolo[1,2-a]imidazol-7-yl)pyrimidin-2-amine], the IC50 is greater than 100 nM.
The result for `C[C@@H]1CCc2nc3c(F)cc(-c4nc(Nc5ccc(CN6C7CCC6CN(C)C7)cn5)ncc4F)cc3n21` [Example 102, 5-fluoro-4-((R)-5-fluoro-1-methyl-2,3-dihydro-1H-benzo[d]pyrrolo[1,2-a]imidazol-7-yl)-N-(5-((3-methyl-3,8-diazabicyclo[3.2.1]octan-8-yl)methy1)pyridin-2-yl)pyrimidin-2-amine] reads 10 to 100 nM; that for `CCN1CC2CCC(C1)N2Cc1ccc(Nc2ncc(F)c(-c3cc(F)c4nc5n(c4c3)[C@H](C)CC5)n2)nc1` [Example 103, N-(5-((3-ethyl-3,8-diazabicyclo[3.2.1]octan-8-yl)methyl)pyridin-2-yl)-5-fluoro-4-((R)-5-fluoro-1-methyl-2,3-dihydro-1H-benzo[d]pyrrolo[1,2-a]imidazol-7-yl)pyrimidin-2-amine], 10 to 100 nM; that for `C[C@@H]1CCc2nc3c(F)cc(-c4nc(Nc5ccc(CN6CC7CCC(C6)N7)cn5)ncc4F)cc3n21` [Example 104, N-(5-((3,8-diazabicyclo[3.2.1]octan-3-yl)methyl)pyridin-2-yl)-5-fluoro-4-((R)-5-fluoro-1-methyl-2,3-dihydro-1H-benzo[d]pyrrolo[1,2-a]imidazol-7-yl)pyrimidin-2-amine], 10 to 100 nM.
The result for `C[C@@H]1CCc2nc3c(F)cc(-c4nc(Nc5ccc(CN6CC7CCC(C6)N7C)cn5)ncc4F)cc3n21` [Example 105, 5-fluoro-4-((R)-5-fluoro-1-methyl-2,3-dihydro-1H-benzo[d]pyrrolo[1,2-a]imidazol-7-yl)-N-(5-((8-methyl-3,8-diazabicyclo[3.2.1]octan-3-yl)methyl)pyridin-2-yl)pyrimidin-2-amine] reads 10 to 100 nM.
The figure for `CCN1C2CCC1CN(Cc1ccc(Nc3ncc(F)c(-c4cc(F)c5nc6n(c5c4)[C@H](C)CC6)n3)nc1)C2` [Example 106, N-(5-((8-ethyl-3,8-diazabicyclo[3.2.1]octan-3-yl)methyl)pyridin-2-yl)-5-fluoro-4-((R)-5-fluoro-1-methyl-2,3-dihydro-1H-benzo[d]pyrrolo[1,2-a]imidazol-7-yl)pyrimidin-2-amine] is 10 to 100 nM.
As for `CC1(C)CCc2nc3c(F)cc(-c4nc(Nc5ccc(CN6CCN7CCC[C@@H]7C6)cn5)ncc4F)cc3n21` [Example 110, (R)-5-fluoro-4-(5-fluoro-1,1-dimethyl-2,3-dihydro-1H-benzo[d]pyrrolo[1,2-a]imidazol-7-yl)-N-(5-((hexahydropyrrolo[1,2-a]pyrazin-2(1H)-yl)methyl)pyridin-2-yl)pyrimidin-2-amine], the half-inhibitory concentration (IC50) is 10 to 100 nM.
`CC1(C)CCc2nc3c(F)cc(-c4nc(Nc5ccc(CN6CC7(CCNCC7)C6)cn5)ncc4F)cc3n21` [Example 111, N-(5-((2,7-diazaspiro[3.5]nonan-2-yl)methyl)pyridin-2-yl)-5-fluoro-4-(5-fluoro-1,1-dimethyl-2,3-dihydro-1H-benzo[d]pyrrolo[1,2-a]imidazol-7-yl)pyrimidin-2-amine] showed a concentration for half-maximal inhibition (IC50) greater than 100 nM.
The result for `CN1CCC2(CC1)CN(Cc1ccc(Nc3ncc(F)c(-c4cc(F)c5nc6n(c5c4)C(C)(C)CC6)n3)nc1)C2` [Example 112, 5-fluoro-4-(5-fluoro-1,1-dimethyl-2,3-dihydro-1H-benzo[d]pyrrolo[1,2-a]imidazol-7-yl)-N-(5-((7-methyl-2,7-diazaspiro[3.5]nonan-2-yl)methyl)pyridin-2-yl)pyrimidin-2-amine] reads less than 10 nM.
